Laboratory results taken from US12595269B2, “Morpholine-like monoamine releasers” (Solvonis Therapeutics Ireland Holdings Limited, priority 2022, dated 2026).

Key:
human DAT = target: T1, human DAT (Homo sapiens, UniProt Q01959); test: DAT uptake scintillation proximity assay, inhibition of [3H]-dopamine uptake in hDAT-CHO cells; format: cell-based; details: read-out: DAT update pIC50 (converted)
T1 construct: expressed in transfected cells; host or cells: CHO
Description: (§1) Overview: Eighty-eight compounds were tested in SERT (serotonin transporter) and DAT (dopamine transporter) uptake assays (completed as scintillation proximity assays, or SPAs, in a recombinant CHO cell line). Fifty-two compounds were tested in release assays for 5-HT and DA release in rat synaptosomes.
Methods and Procedure-Uptake: The potency of the compounds described herein for inhibiting DAT function was measured using an uptake assay in a recombinant CHO cell line stably expressing human DAT (hDAT-CHO). Potency was measured in terms of pIC50 by testing for inhibition of [^3H]-dopamine uptake in hDAT-CHO cells in a 384-well format scintillation proximity assay (SPA).
Briefly, on experiment days, hDAT-CHO cells were detached using Versene and added at a density of approximately 300,000 cells/mL to the SPA Mixture, which contains the following components in Assay Buffer (20 mM HEPES, 145 mM NaCl, 5 mM KCl, 2 mM CaCl2, 1 mM MgCl2, 5.5 mM glucose, 0.01% Pluronic F127, pH 7.3): 0.75 mg/mL SPA Imaging beads (RPNQ0001, PerkinElmer), 10 μM pargyline and 80 nM of [^3H]-dopamine (NET673, PerkinEImer). The SPA Mixture was added 20 μL/well to 384 well plates containing 0.1 μL/well of test compound in neat DMSO (11 points of 1:5 serial dilution, 0.5% DMSO final) or 0.1 μL of DMSO (total uptake) or 0.1 μL of the standard inhibitor indatraline (at 1 μM final concentration, as nonspecific uptake). Plates were sealed with a Top-seal A and read using a Microbeta counter (PerkinEImer) after 45 minutes of incubation at room temperature.
(§2) For both tests, the raw experimental data (cpm) were elaborated for the determination of pIC50/IC50 values as % inhibition of specific uptake. Concentration-response curves of MDMA, MDDMA, citalopram and GBR-12909 were used as internal standards in all experiments, and the signal window was monitored in each plate performing Z′ calculations, as described in Zhang et al., J. Biomol. Screen., 1999; 4: 67-73.

[1] = In vitro intrinsic clearance in human liver microsomes; format: in vitro ADME; details: pH 7.4, read-out: Intrinsic clearance (μL/min/mg protein) human
Description: Methods and Procedure: The general procedure involves incubating test compounds with liver microsomes and subsequently detecting the compounds to determine intrinsic clearance. Clearance was estimated from the rate of depletion k (min−1), the volume of the incubation V (mL), and the amount of microsomal proteins in the incubation M (mg). Intrinsic clearance is defined by the following equation: Clint k*V/M.
Values for CLint are expressed as μL/min/mg protein. Verapamil and dextromethorphan were used as positive controls for CYP3A4 and CYP2D6 isoforms, respectively, to confirm metabolic activity.
Positive control and compounds for testing were dissolved in an appropriate solvent to obtain a 10 mM stock solution, which was diluted to achieve a final working solution, as detailed in the above table. Stock solutions were usually prepared at 10 mM DMSO, whereas working solutions were made by adding 5 μL 10 mM DMSO+995 μL MeOH. However, this concentration can be varied, e.g., when the test item is not soluble in the selected solvent.
Prior to experimentation, frozen liver microsomes were thawed in a water bath at 37° C. and kept on ice until use. The microsomes were then diluted with 50 mM potassium phosphate buffer pH 7.4 to a protein concentration of 0.56 mg/mL. To prepare test and control items in final incubation conditions, 5 μL of test compound and positive control working solutions were added to 445 μL of microsomes incubation mixture at 0.56 mg/mL and 50 μL of regenerating system.
As it relates to the automated incubation procedure for microsomes incubation, the following procedure was followed: • 1. 150 μL of quenching solution (ACN containing an appropriate Internal Standard, i.e. Rolipram and Diclofenac for positive and negative ion mode, respectively) was manually dispensed or dispensed by using the Hamilton system in each well of 96 deep well 1 mL plates. • 2. 800-1000 μL-aliquots of NADPH regenerating system were pre-warmed at 37° C. for 5 minutes. • 3. 5 μL of 50 μM test items and control were added to 445 μL of the 0.56 mg/mL microsomes solution, and the incubation mixture was pre-warmed in a 96 deep well 2 mL plate (incubation plate) at 37° C. for 5 minutes. • 4. […] Metabolic stability was calculated from the ratio of peak area of the remaining test or control item with internal standard versus time. • 9. […] The integrated peak areas of the test and control items at the selected time points were divided by the respective peak areas of the IS, and the percent of parent remaining was calculated by normalizing the peak area ratio of parent to IS at 0 min. Observed rate constant (kobs) for parent degradation was calculated by determining the slope of the line of the graph of the natural log of percentage parent remaining versus time of incubation. […]

[2] = target: T2, SERT (serotonin transporter) (Homo sapiens, UniProt P31645); test: SERT uptake scintillation proximity assay, inhibition of [3H]-serotonin uptake in hSERT-CHO cells; format: cell-based; details: read-out: SERT uptake pIC50 (converted)
T2 construct: expressed in transfected cells; host or cells: CHO
Description: as §1
In addition, hSERT-CHO cells were detached using Versene and added at a density of 150,000 cells/mL to the SPA Mixture, which contains the following components in the Assay Buffer described above: 0.5 mg/mL SPA Imaging beads (RPNQ0001, PerkinElmer), 10 μM pargyline and 35 nM of [^3H]-serotonin (NET498, PerkinElmer). The SPA Mixture was added 20 μL/well to 384 well plates containing 0.1 μL/well of test compound in neat DMSO (11 points of 1:5 serial dilution, 0.5% DMSO final), 0.1 μL of DMSO (total uptake), or 0.1 μL of the standard inhibitor indatraline (1 μM, nonspecific uptake). Plates were sealed with a Top-seal A and read using a Microbeta counter (PerkinElmer) after 120 minutes of incubation at room temperature.
as §2

T2 sequence (P31645 whole entry): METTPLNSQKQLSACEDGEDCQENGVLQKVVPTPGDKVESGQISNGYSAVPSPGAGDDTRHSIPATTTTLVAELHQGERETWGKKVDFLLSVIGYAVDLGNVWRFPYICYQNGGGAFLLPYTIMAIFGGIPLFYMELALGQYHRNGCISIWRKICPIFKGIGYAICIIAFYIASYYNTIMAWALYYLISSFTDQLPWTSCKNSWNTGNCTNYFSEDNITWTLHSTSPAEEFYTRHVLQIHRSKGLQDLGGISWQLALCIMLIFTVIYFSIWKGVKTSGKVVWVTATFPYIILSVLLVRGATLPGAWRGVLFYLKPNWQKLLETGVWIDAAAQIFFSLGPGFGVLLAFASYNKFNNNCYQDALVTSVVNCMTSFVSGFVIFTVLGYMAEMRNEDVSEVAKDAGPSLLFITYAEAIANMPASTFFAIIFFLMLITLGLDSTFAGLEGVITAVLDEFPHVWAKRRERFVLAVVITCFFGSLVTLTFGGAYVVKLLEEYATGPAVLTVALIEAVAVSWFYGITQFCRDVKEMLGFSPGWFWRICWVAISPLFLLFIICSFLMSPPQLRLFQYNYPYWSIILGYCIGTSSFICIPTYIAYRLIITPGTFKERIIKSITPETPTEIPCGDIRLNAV
T1 sequence (Q01959 whole entry): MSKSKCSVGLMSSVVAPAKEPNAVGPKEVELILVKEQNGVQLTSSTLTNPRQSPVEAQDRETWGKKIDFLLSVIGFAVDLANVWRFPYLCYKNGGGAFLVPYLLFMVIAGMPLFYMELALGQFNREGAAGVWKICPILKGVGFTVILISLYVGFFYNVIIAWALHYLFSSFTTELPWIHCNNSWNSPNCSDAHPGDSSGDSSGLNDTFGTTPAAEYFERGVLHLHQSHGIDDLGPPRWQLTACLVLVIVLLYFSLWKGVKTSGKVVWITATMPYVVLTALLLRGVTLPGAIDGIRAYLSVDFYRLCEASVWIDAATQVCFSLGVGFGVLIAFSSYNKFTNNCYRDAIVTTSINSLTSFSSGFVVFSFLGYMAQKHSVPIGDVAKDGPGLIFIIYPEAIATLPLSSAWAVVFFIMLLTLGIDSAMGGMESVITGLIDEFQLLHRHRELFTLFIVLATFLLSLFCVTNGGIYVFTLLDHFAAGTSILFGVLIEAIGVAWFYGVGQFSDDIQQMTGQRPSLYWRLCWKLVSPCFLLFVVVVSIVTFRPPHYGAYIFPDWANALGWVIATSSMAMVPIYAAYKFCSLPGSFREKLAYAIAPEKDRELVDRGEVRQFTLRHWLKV

Structure (SMILES)	IC50 (human DAT)	microsomal CLint at 0.5 µM [1]	IC50 [2]
Clc1ccc([C@]23CN[C@H](CO2)C3)cc1Cl (single isomer, unassigned) [516A]	72.4 nM	31 µL/min/mg	46.8 nM
Clc1ccc([C@@]23CN[C@@H](CO2)C3)cc1Cl (single isomer, unassigned) [518A]	89.1 nM	40 µL/min/mg	81.3 nM
Clc1ccc(C23CNC(CO2)C3)cc1Cl (stereo not shown) [522A, 1-(3,4-dichlorophenyl)-2-oxa-5-azabicyclo[2.2.1]heptane]	63.1 nM	10 µL/min/mg	56.2 nM
CNC(C)Cc1ccc2c(c1)OCO2 (stereo not shown) [MDMA, reference compound]		30 µL/min/mg	
